Results taken from ChEMBL document CHEMBL4376850, “1-Benzylpyrrolidine-3-amine-based BuChE inhibitors with anti-aggregating, antioxidant and metal-chelating properties as multifunctional agents against Alzheimer's disease” (Eur J Med Chem, 2020).
Active and inactive are the calls of the source. The calls are words filed in the database; no cut-off is given here.

Key:
[1] = molecular target: Microtubule-associated protein tau (Homo sapiens) (UniProt P10636); assay: Inhibition of tau aggregation (unknown origin) at 10 uM expressed in Escherichia coli BL21 (DE3) incubated for 24 hrs by thioflavin T-based fluorometric assay relative to control
[2] = molecular target: Beta-secretase 1 (Homo sapiens, UniProt P56817); conditions: 50 uM
[3] = molecular target: Amyloid-beta precursor protein (Homo sapiens) (UniProt P05067); conditions: at 10 µM
Description: Inhibition of amyloid beta (1 to 42) (unknown origin) aggregation at 10 uM expressed in Escherichia coli BL21 (DE3) incubated for 24 hrs by thioflavin T-based fluorometric assay relative to control

[4] = molecular target: Cholinesterase (Equus caballus) (UniProt P81908); assay: Inhibition of equine serum BuChE at 10 uM using butyrylthiocholine chloride as substrate pre-incubated for 5 mins followed by substrate addition and measured after 5 mins by Ellman's method relative to control
[5] = molecular target: Acetylcholinesterase (Electrophorus electricus) (UniProt O42275); assay: Inhibition of Electrophorus electricus AChE at 10 uM using acetylthiocholine iodide as substrate preincubated for 5 mins followed by substrate addition and measured after 5 mins by Ellman's method relative to control
[6] = molecular target: Cholinesterase (Equus caballus, UniProt P81908)
Description: Inhibition of equine serum BuChE using butyrylthiocholine chloride as substrate pre-incubated for 5 mins followed by substrate addition and measured after 5 mins by Ellman's method

[7] = Antioxidant activity assessed as increase in total ferric ion reducing activity at 150 uM using FeCl3.H2O and TPTZ incubated for 60 mins by FRAP assay relative to control; assay type: functional; set-up: scale not given: the % may be the effect or the level left
[8] = Antioxidant activity assessed as increase in total ferric ion reducing activity at 150 uM using FeCl3.H2O and TPTZ incubated for 5 mins by FRAP assay relative to control; assay type: functional; set-up: scale not given: the % may be the effect or the level left
[9] = Antioxidant activity assessed as increase in total ferric ion reducing activity at 30 uM using FeCl3.H2O and TPTZ incubated for 60 mins by FRAP assay relative to control; assay type: functional; set-up: scale not given: the % may be the effect or the level left
[10] = Antioxidant activity assessed as ABTS radical scavenging activity at 75 uM measured after 30 mins by spectrophotometric assay relative to control; assay type: functional
[11] = Antioxidant activity assessed as ABTS radical scavenging activity at 30 uM measured after 5 mins by spectrophotometric assay relative to control; assay type: functional
[12] = Antioxidant activity assessed as ABTS radical scavenging activity at 30 uM measured after 60 mins by spectrophotometric assay relative to control; assay type: functional
[13] = Antioxidant activity assessed as increase in total ferric ion reducing activity at 75 uM using FeCl3.H2O and TPTZ incubated for 60 mins by FRAP assay relative to control; assay type: functional; set-up: scale not given: the % may be the effect or the level left
[14] = Antioxidant activity assessed as ABTS radical scavenging activity at 30 uM measured after 30 mins by spectrophotometric assay relative to control; assay type: functional
[15] = Antioxidant activity assessed as increase in total ferric ion reducing activity at 30 uM using FeCl3.H2O and TPTZ incubated for 30 mins by FRAP assay relative to control; assay type: functional; set-up: scale not given: the % may be the effect or the level left
[16] = Antioxidant activity assessed as ABTS radical scavenging activity at 150 uM measured after 30 mins by spectrophotometric assay relative to control; assay type: functional
[17] = Antioxidant activity assessed as increase in total ferric ion reducing activity at 30 uM using FeCl3.H2O and TPTZ incubated for 5 mins by FRAP assay relative to control; assay type: functional; set-up: scale not given: the % may be the effect or the level left
[18] = Antioxidant activity assessed as ABTS radical scavenging activity at 75 uM measured after 5 mins by spectrophotometric assay relative to control; assay type: functional
[19] = Antioxidant activity assessed as ABTS radical scavenging activity at 150 uM measured after 60 mins by spectrophotometric assay relative to control; assay type: functional
[20] = Antioxidant activity assessed as increase in total ferric ion reducing activity at 150 uM using FeCl3.H2O and TPTZ incubated for 30 mins by FRAP assay relative to control; assay type: functional; set-up: scale not given: the % may be the effect or the level left
[21] = Antioxidant activity assessed as increase in total ferric ion reducing activity at 75 uM using FeCl3.H2O and TPTZ incubated for 5 mins by FRAP assay relative to control; assay type: functional; set-up: scale not given: the % may be the effect or the level left
[22] = Antioxidant activity assessed as ABTS radical scavenging activity at 150 uM measured after 5 mins by spectrophotometric assay relative to control; assay type: functional
[23] = Antioxidant activity assessed as increase in total ferric ion reducing activity at 75 uM using FeCl3.H2O and TPTZ incubated for 30 mins by FRAP assay relative to control; assay type: functional; set-up: scale not given: the % may be the effect or the level left
[24] = Antioxidant activity assessed as ABTS radical scavenging activity at 75 uM measured after 60 mins by spectrophotometric assay relative to control; assay type: functional
[25] = Metal chelating activity assessed as Cu2+-compound complex formation at 50 uM after 30 mins by UV-Visible spectrophotometric method

Chain of Amyloid-beta precursor protein (Homo sapiens) (P05067 whole entry): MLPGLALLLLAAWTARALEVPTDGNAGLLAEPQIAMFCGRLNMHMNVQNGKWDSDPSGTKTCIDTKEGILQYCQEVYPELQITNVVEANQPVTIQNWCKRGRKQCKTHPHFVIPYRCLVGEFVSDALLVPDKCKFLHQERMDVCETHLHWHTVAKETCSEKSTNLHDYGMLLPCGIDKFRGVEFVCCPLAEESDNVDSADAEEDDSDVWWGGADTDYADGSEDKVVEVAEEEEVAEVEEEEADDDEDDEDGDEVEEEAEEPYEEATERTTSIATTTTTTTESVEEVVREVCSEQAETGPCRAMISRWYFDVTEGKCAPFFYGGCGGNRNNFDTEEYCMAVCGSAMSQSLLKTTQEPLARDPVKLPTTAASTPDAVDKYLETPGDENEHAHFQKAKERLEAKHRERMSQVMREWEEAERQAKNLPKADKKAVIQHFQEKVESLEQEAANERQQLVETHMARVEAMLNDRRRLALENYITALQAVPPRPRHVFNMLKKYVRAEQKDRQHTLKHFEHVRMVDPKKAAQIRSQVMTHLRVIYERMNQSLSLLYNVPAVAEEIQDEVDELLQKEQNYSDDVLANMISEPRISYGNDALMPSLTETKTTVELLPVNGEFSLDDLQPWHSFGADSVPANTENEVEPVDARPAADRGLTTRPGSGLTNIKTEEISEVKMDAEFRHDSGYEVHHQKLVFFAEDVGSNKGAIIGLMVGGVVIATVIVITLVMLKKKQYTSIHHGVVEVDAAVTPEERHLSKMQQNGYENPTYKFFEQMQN
Chain of Acetylcholinesterase (Electrophorus electricus) (O42275 24-633 limits assumed): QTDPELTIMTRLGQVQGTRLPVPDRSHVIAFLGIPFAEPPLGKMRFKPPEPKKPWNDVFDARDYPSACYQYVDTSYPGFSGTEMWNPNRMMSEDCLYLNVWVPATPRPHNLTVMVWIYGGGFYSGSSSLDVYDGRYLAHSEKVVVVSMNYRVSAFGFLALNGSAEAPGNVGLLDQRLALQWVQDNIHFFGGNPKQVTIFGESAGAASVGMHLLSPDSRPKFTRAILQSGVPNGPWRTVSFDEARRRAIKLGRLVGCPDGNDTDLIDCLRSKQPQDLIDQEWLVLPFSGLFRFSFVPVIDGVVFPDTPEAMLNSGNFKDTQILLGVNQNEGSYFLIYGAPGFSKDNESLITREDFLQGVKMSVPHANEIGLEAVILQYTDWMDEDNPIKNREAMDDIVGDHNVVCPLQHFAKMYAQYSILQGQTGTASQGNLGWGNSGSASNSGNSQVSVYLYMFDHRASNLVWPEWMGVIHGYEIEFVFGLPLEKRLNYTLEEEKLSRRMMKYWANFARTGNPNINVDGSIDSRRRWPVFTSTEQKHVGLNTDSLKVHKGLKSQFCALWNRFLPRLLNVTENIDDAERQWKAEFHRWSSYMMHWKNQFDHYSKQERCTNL
Chain of Cholinesterase (P81908 whole entry): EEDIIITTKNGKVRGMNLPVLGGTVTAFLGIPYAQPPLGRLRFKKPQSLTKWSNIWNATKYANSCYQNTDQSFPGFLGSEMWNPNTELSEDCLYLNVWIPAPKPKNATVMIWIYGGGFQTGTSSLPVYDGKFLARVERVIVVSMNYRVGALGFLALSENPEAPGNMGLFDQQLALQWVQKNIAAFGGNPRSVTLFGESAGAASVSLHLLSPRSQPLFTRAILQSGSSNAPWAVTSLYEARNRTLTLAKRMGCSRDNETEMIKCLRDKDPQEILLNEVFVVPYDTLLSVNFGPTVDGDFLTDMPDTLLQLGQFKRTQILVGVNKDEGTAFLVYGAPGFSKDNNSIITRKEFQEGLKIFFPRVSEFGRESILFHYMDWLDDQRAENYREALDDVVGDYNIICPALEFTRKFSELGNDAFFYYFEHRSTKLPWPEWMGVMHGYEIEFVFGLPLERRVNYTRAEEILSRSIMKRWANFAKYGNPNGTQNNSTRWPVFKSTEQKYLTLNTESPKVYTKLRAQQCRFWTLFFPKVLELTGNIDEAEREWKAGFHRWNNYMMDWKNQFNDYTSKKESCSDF
Chain of Cholinesterase (Equus caballus) (P81908 whole entry): as above
Chain of Microtubule-associated protein tau (Homo sapiens) (P10636 whole entry): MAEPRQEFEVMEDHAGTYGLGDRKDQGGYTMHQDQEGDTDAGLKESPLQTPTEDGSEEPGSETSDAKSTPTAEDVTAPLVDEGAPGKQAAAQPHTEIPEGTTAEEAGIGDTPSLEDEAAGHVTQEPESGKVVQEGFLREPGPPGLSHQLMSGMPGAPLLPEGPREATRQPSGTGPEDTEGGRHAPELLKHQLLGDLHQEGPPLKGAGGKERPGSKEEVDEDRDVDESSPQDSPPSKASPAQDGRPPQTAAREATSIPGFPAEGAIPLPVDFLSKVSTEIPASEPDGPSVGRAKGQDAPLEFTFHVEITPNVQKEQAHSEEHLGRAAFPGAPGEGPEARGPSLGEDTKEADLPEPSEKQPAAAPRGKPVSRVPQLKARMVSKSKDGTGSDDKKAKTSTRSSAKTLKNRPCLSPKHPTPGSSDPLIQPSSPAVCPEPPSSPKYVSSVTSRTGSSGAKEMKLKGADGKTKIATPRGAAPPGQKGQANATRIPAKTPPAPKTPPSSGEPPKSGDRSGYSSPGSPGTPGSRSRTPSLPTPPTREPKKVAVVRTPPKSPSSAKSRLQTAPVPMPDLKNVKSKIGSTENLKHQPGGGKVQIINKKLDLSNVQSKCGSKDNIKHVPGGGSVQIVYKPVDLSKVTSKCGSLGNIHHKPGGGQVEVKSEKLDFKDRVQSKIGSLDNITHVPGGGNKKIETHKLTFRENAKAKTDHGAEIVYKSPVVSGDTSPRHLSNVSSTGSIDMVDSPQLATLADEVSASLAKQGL
Chain of Beta-secretase 1 (P56817 whole entry): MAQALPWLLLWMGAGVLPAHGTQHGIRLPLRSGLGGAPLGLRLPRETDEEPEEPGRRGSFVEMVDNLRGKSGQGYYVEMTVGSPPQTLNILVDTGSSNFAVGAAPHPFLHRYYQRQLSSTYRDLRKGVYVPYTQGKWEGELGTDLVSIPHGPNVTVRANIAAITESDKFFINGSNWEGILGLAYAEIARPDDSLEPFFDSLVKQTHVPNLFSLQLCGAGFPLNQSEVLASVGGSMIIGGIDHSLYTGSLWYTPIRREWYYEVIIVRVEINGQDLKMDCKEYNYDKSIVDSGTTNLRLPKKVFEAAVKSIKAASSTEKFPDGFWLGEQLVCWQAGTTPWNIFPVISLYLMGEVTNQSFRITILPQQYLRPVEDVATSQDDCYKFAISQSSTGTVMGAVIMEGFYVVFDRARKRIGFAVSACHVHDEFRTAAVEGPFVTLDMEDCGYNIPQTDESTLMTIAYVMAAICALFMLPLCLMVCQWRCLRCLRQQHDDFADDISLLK

Structure (SMILES) | inhibition [1] [%] | inhibition [2] [%] | inhibition [3] [%] | inhibition [4] [%] | inhibition [5] [%] | Activity [7] [%] | Activity [8] [%] | Activity [9] [%] | Activity [10] [%] | Activity [11] [%] | Activity [12] [%] | Activity [13] [%] | Activity [14] [%] | Activity [15] [%] | Activity [16] [%] | Activity [17] [%] | Activity [18] [%] | Activity [19] [%] | Activity [20] [%] | Activity [21] [%] | other results
O=C(CCN1CCC(CCc2ccccc2)CC1)NC1CCN(Cc2ccccc2)C1 (centres undefined) | 57.9 | < 10 | 47.8 | 16.3 | 32.9 |  |  |  |  |  |  |  |  |  |  |  |  |  |  |  | 
O=C(CN1CCCC(Cc2ccccc2)C1)NC1CCN(Cc2ccccc2)C1 (centres undefined) | 54.2 | < 10 | 45.1 |  | 27.6 |  |  |  |  |  |  |  |  |  |  |  |  |  |  |  | IC50 [6]: 7 µM
O=C(CN1CCN(CCc2ccccc2)CC1)NC1CCN(Cc2ccccc2)C1 (centres undefined) | 61.3 | 48.6 | 15.2 | 15.3 | < 10 |  |  |  |  |  |  |  |  |  |  |  |  |  |  |  | 
Cc1c(C)c2c(c(C)c1O)CCC(C)(C(=O)O)O2 (centres undefined) |  |  |  |  |  | 100 | 100 | 100 | 100 | 100 | 100 | 100 | 100 | 100 | 100 | 100 | 100 | 100 | 100 | 100 | Activity [22]: 100%; Activity [23]: 100%; Activity [24]: 100%
O=C(CN1CCCC(c2ccccc2)C1)NC1CCN(Cc2ccccc2)C1 (centres undefined) | 43.6 | 14.7 | 38.8 | 46 | 30.6 |  |  |  |  |  |  |  |  |  |  |  |  |  |  |  | 
c1ccc(CC2CCN(CCNC3CCN(Cc4ccccc4)C3)CC2)cc1 (centres undefined) | 61 | < 10 | 36.6 |  | 21.2 | 22 | 13 | 3 | 21 | 9 | 17 | 13 | 12 | 2 | 43 | 1 | 11 | 55 | 20 | 6 | IC50 [6]: 0.62 µM; Activity [25]: Active; Activity [22]: 21%; Activity [23]: 11%; Activity [24]: 27%
c1ccc(CCN2CCN(CCNC3CCN(Cc4ccccc4)C3)CC2)cc1 (centres undefined) | 59.6 | 33.5 | 34.7 | 25.7 | < 10 | 43 | 39 | 10 | 41 | 14 | 34 | 18 | 28 | 9 | 73 | 8 | 22 | 82 | 40 | 5 | Activity [22]: 46%; Activity [23]: 15%; Activity [24]: 48%
O=C(CN1CCN(C(c2ccccc2)c2ccccc2)CC1)NC1CCN(Cc2ccccc2)C1 (centres undefined) | 61.2 | 40 | 27.9 | < 10 | < 10 |  |  |  |  |  |  |  |  |  |  |  |  |  |  |  | 
c1ccc(CC2CCCN(CCNC3CCN(Cc4ccccc4)C3)C2)cc1 (centres undefined) |  | 24.1 |  |  | 29.9 | 35 | 30 | 10 | 40 | 21 | 5 | 30 | 14 | 10 | 80 | 7 | 18 | 94 | 32 | 24 | IC50 [6]: 1.94 µM; Activity [25]: Active; Activity [22]: 49%; Activity [23]: 28%; Activity [24]: 53%
c1ccc(CN2CCC(NCCN3CCC(c4ccccc4)CC3)C2)cc1 (centres undefined) | 68.1 | 11.8 | 37.4 | 45.5 | < 10 | 8 | 10 | 3 | 39 | 13 | 31 | 6 | 24 | 3 | 75 | 2 | 15 | 84 | 6 | 0 | Activity [25]: Active; Activity [22]: 37%; Activity [23]: 4%; Activity [24]: 48%
c1ccc(CN2CCC(NCCN3CCCC(c4ccccc4)C3)C2)cc1 (centres undefined) |  | 25 |  |  | 40.8 | 39 | 34 | 15 | 47 | 14 | 38 | 25 | 27 | 13 | 85 | 11 | 24 | 96 | 36 | 15 | IC50 [6]: 2.39 µM; Activity [25]: Active; Activity [22]: 54%; Activity [23]: 22%; Activity [24]: 59%
O=C(CN1CCC(CCc2ccccc2)CC1)NC1CCN(Cc2ccccc2)C1 (centres undefined) | 53.5 | 50.5 | 48.3 | 33.1 | < 10 |  |  |  |  |  |  |  |  |  |  |  |  |  |  |  | 
O=C(CN1CCN(Cc2ccccc2)CC1)NC1CCN(Cc2ccccc2)C1 (centres undefined) | 66.7 | 40.7 | 37.4 | 17.8 | < 10 |  |  |  |  |  |  |  |  |  |  |  |  |  |  |  | 
c1ccc(CN2CCC(NCCN3CCN(c4ccccc4)CC3)C2)cc1 (centres undefined) | 79.5 | 40.7 | 38.5 | 23.9 | < 10 | 79 | 55 | 55 | 78 | 42 | 80 | 68 | 71 | 39 | 98 | 15 | 50 | 99 | 68 | 23 | Activity [25]: Active; Activity [22]: 76%; Activity [23]: 54%; Activity [24]: 85%
O=C(CN1CCC(c2ccccc2)CC1)NC1CCN(Cc2ccccc2)C1 (centres undefined) | 53.6 | 48.4 | 43.7 | 33.3 | < 10 |  |  |  |  |  |  |  |  |  |  |  |  |  |  |  | Activity [25]: Active
O=C(CN1CCN(c2ccccc2)CC1)NC1CCN(Cc2ccccc2)C1 (centres undefined) | 74.8 | 43.7 | 34.5 | < 10 | < 10 | 72 | 44 | 49 | 49 | 23 | 62 | 60 | 50 | 33 | 66 | 10 | 23 | 76 | 58 | 14 | Activity [22]: 36%; Activity [23]: 44%; Activity [24]: 59%
c1ccc(CCC2CCN(CCCNC3CCN(Cc4ccccc4)C3)CC2)cc1 (centres undefined) | 52.8 | 17 | 36.3 | 25.6 | 34.9 |  |  |  |  |  |  |  |  |  |  |  |  |  |  |  | 
O=C(CN1CCCC(CCc2ccccc2)C1)NC1CCN(Cc2ccccc2)C1 (centres undefined) |  | 28.8 |  |  | 26.7 |  |  |  |  |  |  |  |  |  |  |  |  |  |  |  | IC50 [6]: 10.3 µM
